Converted amounts (≈) assume the structure as drawn.
Legend:
Enterococcus faecalis = assay: Antibacterial activity against Enterococcus faecalis ATCC 29212 after 16 hrs; type: functional; settings: ATCC 29212, 16 h
Streptococcus pneumoniae = assay: Antibacterial activity against Streptococcus pneumoniae ATCC 49619 after 20 hrs; type: functional; settings: ATCC 49619, 20 h
[1] = system: Mycobacterium tuberculosis; assay: Antimycobacterial activity against Mycobacterium tuberculosis clinical isolate X003899 under normoxic condition after 7 days by MABA assay; type: functional; settings: clinical isolate X003899, 168 h
[2] = system: Mycobacterium tuberculosis; assay: Antimycobacterial activity against Mycobacterium tuberculosis clinical isolate X005319 under normoxic condition after 7 days by MABA assay; type: functional; settings: clinical isolate X005319, 168 h
[3] = system: Mycobacterium tuberculosis; assay: Antimycobacterial activity against Mycobacterium tuberculosis clinical isolate X001354 under normoxic condition after 7 days by MABA assay; type: functional; settings: clinical isolate X001354, 168 h
[4] = system: Mycobacterium tuberculosis; assay: Antimycobacterial activity against Mycobacterium tuberculosis clinical isolate X004244 under normoxic condition after 7 days by MABA assay; type: functional; settings: clinical isolate X004244, 168 h
[5] = system: Mycolicibacterium smegmatis; assay: Antimycobacterial activity against Mycobacterium smegmatis ATCC 700084 under normoxic condition after 72 hrs by MABA assay; type: functional; settings: ATCC 700084, 72 h
[6] = system: Mycobacterium tuberculosis; assay: Antimycobacterial activity against Mycobacterium tuberculosis H37Rv under normoxic condition after 7 days by MABA assay; type: functional; settings: for MIC90: Mycobacterium tuberculosis, H37Rv, 168 h
[7] = system: Mycobacterium tuberculosis; assay: Antimycobacterial activity against Mycobacterium tuberculosis H37Rv under normoxic condition after 7 days by MABA assay in presence of 10% fetal bovine serum; type: functional; settings: 168 h
[8] = system: Mycobacterium tuberculosis; assay: Antimycobacterial activity against Mycobacterium tuberculosis clinical isolate X005282 under normoxic condition after 7 days by MABA assay; type: functional; settings: clinical isolate X005282, 168 h
[9] = system: Mycobacterium tuberculosis; assay: Antimycobacterial activity against Mycobacterium tuberculosis H37Rv under normoxic condition after 7 days by MABA assay in presence of 4% bovine serum albumin; type: functional; settings: 168 h
[10] = system: Mycobacterium tuberculosis; assay: Antimycobacterial activity against Mycobacterium tuberculosis clinical isolate X004439 under normoxic condition after 7 days by MABA assay; type: functional; settings: clinical isolate X004439, 168 h
Acinetobacter baumannii = assay: Antibacterial activity against Acinetobacter baumannii ATCC BAA-747 after 16 hrs; type: functional; settings: for MIC90: ATCC BAA-747, 16 h
Candida albicans = assay: Antifungal activity against Candida albicans ATCC 10231 after 48 hrs; type: functional; settings: ATCC 10231, 48 h
Pseudomonas aeruginosa = assay: Antibacterial activity against Pseudomonas aeruginosa ATCC 27853 after 16 hrs; type: functional; settings: for MIC90: ATCC 27853, 16 h
Vero = assay: Cytotoxicity against african green monkey Vero cells; type: cell-based; settings: Chlorocebus sabaeus
Staphylococcus aureus = assay: Antibacterial activity against Staphylococcus aureus ATCC 29213 after 16 hrs; type: functional
Escherichia coli = assay: Antibacterial activity against Escherichia coli ATCC 25922 after 16 hrs; type: functional

| Compound | MIC90 (Enterococcus faecalis) | MIC90 (Streptococcus pneumoniae) | MIC90 [1] | MIC90 [2] | MIC90 [3] | MIC90 [4] | MIC90 [6] | MIC90 [7] | MIC90 [8] | MIC90 [9] | MIC90 [10] | also measured |
| --- | --- | --- | --- | --- | --- | --- | --- | --- | --- | --- | --- | --- |
| CC[C@H]1OC(=O)[C@H](C)[C@@H](O[C@H]2C[C@@](C)(OC)[C@@H](O)[C@H](C)O2)[C@H](C)[C@@H](O[C@@H]2O[C@H](C)C[C@H](N(C)C)[C@H]2O)[C@](C)(O)C[C@@H](C)C(=O)[C@H](C)[C@@H](O)[C@]1(C)O [ERYTHROMYCIN] | 1.9 µg/mL (≈ 2.59 µM) | 0.1 µg/mL (≈ 0.136 µM) | – | – | – | – | – | – | – | – | – | – |
| NNC(=O)c1ccncc1 [ISONIAZID] | – | – | 0.1 µg/mL (≈ 0.729 µM) | 0.9 µg/mL (≈ 6.56 µM) | 0.1 µg/mL (≈ 0.729 µM) | > 1.1 µg/mL | 0.03 µg/mL (≈ 0.219 µM) | 0.04 µg/mL | 0.1 µg/mL (≈ 0.729 µM) | 0.1 µg/mL | 0.1 µg/mL (≈ 0.729 µM) | MIC90 [5]: 12.7 µg/mL (≈ 92.6 µM) |
| NC[C@H]1O[C@H](O[C@H]2[C@H](O)[C@@H](O[C@H]3O[C@H](CO)[C@@H](O)[C@H](N)[C@H]3O)[C@H](N)C[C@@H]2N)[C@H](O)[C@@H](O)[C@@H]1O [KANAMYCIN] | – | – | – | – | – | – | – | – | – | – | – | MIC90 (Acinetobacter baumannii): 0.7 µg/mL (≈ 1.44 µM) |
| CC(=O)N1CCN(c2ccc(OCC3COC(Cn4ccnc4)(c4ccc(Cl)cc4Cl)O3)cc2)CC1 (stereo not drawn) [KETOCONAZOLE] | – | – | – | – | – | – | – | – | – | – | – | MIC90 (Candida albicans): < 0.004 µg/mL |
| Cc1ncc([N+](=O)[O-])n1CCO [METRONIDAZOLE] | – | – | > 87.6 µg/mL | > 87.6 µg/mL | > 87.6 µg/mL | > 87.6 µg/mL | > 87.6 µg/mL | > 87.6 µg/mL | > 87.6 µg/mL | > 87.6 µg/mL | > 87.6 µg/mL | – |
| CN(C)c1ccc(O)c2c1C[C@H]1C[C@H]3[C@H](N(C)C)C(O)=C(C(N)=O)C(=O)[C@@]3(O)C(O)=C1C2=O [MINOCYCLINE] | – | – | – | – | – | – | – | – | – | – | – | MIC90 (Acinetobacter baumannii): 0.2 µg/mL (≈ 0.437 µM) |
| CC1COc2c(N3CCN(C)CC3)c(F)cc3c(=O)c(C(=O)O)cn1c23 (stereo not drawn) [OFLOXACIN] | 2.3 µg/mL (≈ 6.36 µM) | 1.1 µg/mL (≈ 3.04 µM) | – | – | – | – | – | – | – | – | – | MIC90 (Pseudomonas aeruginosa): 1.2 µg/mL (≈ 3.32 µM) |
| CO[C@H]1/C=C/O[C@@]2(C)Oc3c(C)c(O)c4c(O)c(c(/C=N/N5CCN(C)CC5)c(O)c4c3C2=O)NC(=O)/C(C)=C\C=C\[C@H](C)[C@H](O)[C@@H](C)[C@@H](O)[C@@H](C)[C@H](OC(C)=O)[C@@H]1C [RIFAMPIN] | 0.2 µg/mL (≈ 0.243 µM) | < 0.01 µg/mL | 0.1 µg/mL (≈ 0.122 µM) | 0.1 µg/mL (≈ 0.122 µM) | 0.02 µg/mL (≈ 0.0243 µM) | 0.1 µg/mL (≈ 0.122 µM) | < 0.02 µg/mL | < 0.02 µg/mL | 0.03 µg/mL (≈ 0.0365 µM) | 0.02 µg/mL | 0.02 µg/mL (≈ 0.0243 µM) | MIC90 [5]: < 0.3 µg/mL; MIC90 (Pseudomonas aeruginosa): 17.8 µg/mL (≈ 21.6 µM); MBC90 [6]: 0.1 µg/mL (≈ 0.122 µM); IC50 (Vero): 143 µg/mL (≈ 174 µM) |
| CN[C@@H]1[C@H](O[C@H]2[C@H](O[C@H]3[C@H](O)[C@@H](O)[C@H](N=C(N)N)[C@@H](O)[C@@H]3N=C(N)N)O[C@@H](C)[C@]2(O)C=O)O[C@@H](CO)[C@H](O)[C@H]1O [STREPTOMYCIN] | – | – | 0.2 µg/mL (≈ 0.344 µM) | 1 µg/mL (≈ 1.72 µM) | 0.4 µg/mL (≈ 0.688 µM) | 0.3 µg/mL (≈ 0.516 µM) | 0.3 µg/mL (≈ 0.516 µM) | 0.6 µg/mL | 0.6 µg/mL (≈ 1.03 µM) | 0.8 µg/mL | 0.3 µg/mL (≈ 0.516 µM) | MIC90 [5]: 0.1 µg/mL (≈ 0.172 µM) |
| CN[C@H](CC(C)C)C(=O)N[C@H]1C(=O)N[C@@H](CC(N)=O)C(=O)N[C@H]2C(=O)N[C@H]3C(=O)N[C@H](C(=O)N[C@H](C(=O)O)c4cc(O)cc(O)c4-c4cc3ccc4O)[C@H](O)c3ccc(c(Cl)c3)Oc3cc2cc(c3O[C@@H]2O[C@H](CO)[C@@H](O)[C@H](O)[C@H]2O[C@H]2C[C@](C)(N)[C@H](O)[C@H](C)O2)Oc2ccc(cc2Cl)[C@H]1O [VANCOMYCIN] | 2.3 µg/mL (≈ 1.59 µM) | 0.1 µg/mL (≈ 0.069 µM) | – | – | – | – | – | – | – | – | – | – |
| GENTAMICIN | – | – | – | – | – | – | – | – | – | – | – | MIC>90 (Staphylococcus aureus): 0.6 µg/mL; MIC>90 (Acinetobacter baumannii): 0.2 µg/mL; MIC>90 (Pseudomonas aeruginosa): 0.5 µg/mL; MIC>90 (Escherichia coli): 1.2 µg/mL |
